Values of other authors as cited in patent publication US8211015B2 (priority 2006, dated 2012).

Conditions: in vivo

In the case of `CCOC(=O)C1(c2ccccc2)CCN(C)CC1` [meperidine], the “analgesic effect on labor pain” value is listed as “more sedation than actual analgesia”.

For `CN1CC[C@]23c4c5ccc(O)c4O[C@H]2[C@@H](O)C=C[C@H]3[C@H]1C5` [morphine], the “analgesic effect on labor pain” value is given as “more sedation than actual analgesia”.
